Measurements reported in US10675293B2, “Nucleoside agents for the reduction of the deleterious activity of extended nucleotide repeat containing genes” (The Board of Trustees of the Leland Stanford Junior …, priority 2015, dated 2020).

Target: T1, Supt4h-YC / Supt5h NGN-YN interaction (Homo sapiens, UniProt O00267+P63272)
T1 construct: NGN-YN is a genetic engineered protein in which Supt5h NGN domain is fused to YFP YN; expressed in transfected cells
Assay: Bimolecular fluorescence complementation (BiFC) assay in 2-PN4 stable cells
Type: cell-based
Protocol: Human Supt4h and Supt5hNGN were fused in-frame with the YC and YN respectively. The YN and YC represent the N- and C-terminal domain of yellow fluorescent protein Venus. To prevent a change in protein folding caused by the conjugation of two polypeptides (Kerppola, “Design and implementation of bimolecular fluorescence complementation (BiFC) assays for the visualization of protein interactions in living cells,” Nature protocols (2006) 1:1278-1286), a protein linker containing additional 10 amino acid residues was included in the fusion protein. Also, extra amino acids GSHM were incorporated into the Supt5hNGN to increase its protein stability (Wenzel et al., “Crystal structure of the human transcription elongation factor DSIF hSpt4 subunit in complex with the hSpt5 dimerization interface,” The Biochemical journal (2010) 425:373-380). Supt4h, NGN, YC, and YN were amplified by PCR to generate DNA fragments containing the nucleotide sequence of protein linker. Supt4h and NGN PCR products then were mixed with the PCR product of YN or YC for secondary overlapping PCR. Finally, the resulting Supt4h-YC and NGN-YN DNA fragment was cloned into plasmid vector pcDNA3-HA and pFLAG-CMV-2 respectively.
Tet-on HeLa cells were transfected with linearized pTRE-HA-Supt4h-VC-Flag-NGN-VN plasmid construct using LipofectAMINE 2000 (Invitrogen). After transfection, cells were cultured initially in growth medium containing puromycin (1 μg/ml) and then selected for clones that show YFP fluorescence in the presence of tetracycline (4 μg/ml). The stable line having the strongest fluorescence signal was isolated and designated as 2-PN4. Likewise, 21-VS stable line was created using pTRE-HA-Venus.
Stable lines 2-PN4 and 21-VS were pre-cultured in 6-well plates, followed by an incubation of Doxycycline (4 μg/ml) together with various concentrations of chemical compounds for 24 hr. Cells were washed with PBS (Sigma) and monitored by microscope (20× magnification). Photos were taken using Nikon D500 camera with a setting of ISO 1600, shutter 1/200 for the light images, and shutter ½ for the fluorescence images. For quantification of fluorescence intensity, 5 photos with similar cell number were taken and the fluorescence signal was measured by Metamorph software individually. The average of overall fluorescence signal was determined and compared to the one observed in DMSO-treated control sample.
For the purpose of high-throughput drug screening, based on the BiFC method as mentioned above, we have created a stable cell line that co-expresses NGN-YN and Supt4h-YC under the control of a tet-on inducible promoter. […] If the complementation that is driven by NGN and Supt4h interaction is inhibited by a given test compound, the de novo YFP fluorescence signal is affected. […]

SMILES: O=c1cnn([C@@H]2O[C@H](CO)[C@@H](O)[C@H]2O)c(=O)[nH]1 [HD101, 6-Azauridine]
- reduction of BiFC signal compared to mock controls (0.02 μM, 24 hr): approximately 70%
- BiFC fluorescence signal of 2-PN4 cells (various concentrations, 24 hr with Doxycycline 4 μg/ml): inhibits the fluorescence signal of BiFC
